Literature values in patent publication US9034830B2, “Methods and compositions for sustained delivery of drugs” (INTRATUS, INC., priority 2009, dated 2015).

Test system: patients

SMILES: Brc1c(NC2=NCCN2)ccc2nccnc12 [Brimonidine]
- more patients who had to discontinue due to lack of clinical effect (0.2% eye drop, FDA clinical data): 30%
- drop in intraocular pressure (eye drop, dosed at least two times a day): ~24%
- patients with side-effects (itching, redness, intolerance) necessitating stoppage of the drug (eye drop, per FDA data): up to 20%
